Data: patent publication EP0906127B1, “NOVEL DEVICES FOR TRANSDERMAL ADMINISTERING OF TRIMEGESTONE” (priority 1996, dated 1997)

Columns and labels:
[1] = target: T1, récepteurs hormonaux humains recombinant androgène (hAN) (Homo sapiens, UniProt P10275); assay: Relative binding affinity for recombinant hormone receptors (SF9 insect cell-baculovirus overexpression)
T1 construct: made in house; host or cells: SF9 insect cells / baculovirus
Description: (§1) Cette affinité a été étudiée sur les récepteurs hormonaux humains recombinant de la progestérone (hPR), androgène (hAN), glucocorticoide (hGR) et estrogène (hER).

[2] = target: T2, récepteurs hormonaux humains recombinant de la progestérone (hPR) (Homo sapiens, UniProt P06401); assay: as above
T2 construct: made in house; host or cells: SF9 insect cells / baculovirus
T2 sequence (P06401 1-933): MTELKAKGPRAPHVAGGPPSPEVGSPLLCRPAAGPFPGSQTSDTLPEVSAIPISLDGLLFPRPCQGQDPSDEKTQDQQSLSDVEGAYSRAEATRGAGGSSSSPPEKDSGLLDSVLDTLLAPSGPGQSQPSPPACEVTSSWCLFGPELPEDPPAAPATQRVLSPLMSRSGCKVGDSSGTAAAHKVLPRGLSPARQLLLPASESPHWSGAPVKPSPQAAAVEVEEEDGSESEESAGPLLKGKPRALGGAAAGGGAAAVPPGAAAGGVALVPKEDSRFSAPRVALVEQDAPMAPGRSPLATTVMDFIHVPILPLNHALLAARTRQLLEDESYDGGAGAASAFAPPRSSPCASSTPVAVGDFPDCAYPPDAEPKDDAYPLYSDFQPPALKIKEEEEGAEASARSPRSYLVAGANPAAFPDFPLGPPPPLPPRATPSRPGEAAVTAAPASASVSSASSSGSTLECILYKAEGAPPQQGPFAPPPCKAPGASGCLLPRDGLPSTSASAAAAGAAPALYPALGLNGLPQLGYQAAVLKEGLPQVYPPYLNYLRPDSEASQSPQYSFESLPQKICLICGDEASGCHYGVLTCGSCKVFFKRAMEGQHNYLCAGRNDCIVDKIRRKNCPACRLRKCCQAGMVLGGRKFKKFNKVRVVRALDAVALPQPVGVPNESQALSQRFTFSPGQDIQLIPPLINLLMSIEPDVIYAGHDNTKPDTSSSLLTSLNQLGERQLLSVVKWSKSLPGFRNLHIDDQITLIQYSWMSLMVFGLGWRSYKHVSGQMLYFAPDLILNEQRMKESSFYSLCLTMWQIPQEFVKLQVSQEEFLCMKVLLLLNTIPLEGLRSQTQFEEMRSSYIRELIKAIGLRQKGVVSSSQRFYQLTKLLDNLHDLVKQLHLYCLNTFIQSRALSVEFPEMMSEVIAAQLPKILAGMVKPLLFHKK
Description: as §1

[3] = target: T3, récepteurs hormonaux humains recombinant estrogène (hER) (Homo sapiens, UniProt P03372); assay: as above
T3 construct: made in house; host or cells: SF9 insect cells / baculovirus
T3 sequence (P03372 1-595): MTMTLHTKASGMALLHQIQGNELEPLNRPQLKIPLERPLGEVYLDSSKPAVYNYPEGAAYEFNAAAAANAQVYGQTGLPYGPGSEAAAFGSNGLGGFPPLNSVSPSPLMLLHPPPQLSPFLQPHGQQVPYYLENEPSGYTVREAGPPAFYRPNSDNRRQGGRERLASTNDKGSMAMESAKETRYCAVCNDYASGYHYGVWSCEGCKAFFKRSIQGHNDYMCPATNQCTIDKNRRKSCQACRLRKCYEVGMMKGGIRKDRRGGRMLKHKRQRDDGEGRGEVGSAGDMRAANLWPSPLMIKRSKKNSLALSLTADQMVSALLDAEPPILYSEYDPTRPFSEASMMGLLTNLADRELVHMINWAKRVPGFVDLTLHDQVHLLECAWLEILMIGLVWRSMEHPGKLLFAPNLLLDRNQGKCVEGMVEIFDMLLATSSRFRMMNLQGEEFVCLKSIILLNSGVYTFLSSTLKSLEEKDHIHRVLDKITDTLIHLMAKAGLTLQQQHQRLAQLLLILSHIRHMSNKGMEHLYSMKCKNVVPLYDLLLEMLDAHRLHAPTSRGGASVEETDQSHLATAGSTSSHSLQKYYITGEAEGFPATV
Description: as §1

[4] = target: T4, récepteurs hormonaux humains recombinant glucocorticoide (hGR) (Homo sapiens, UniProt P04150); assay: as above
T4 construct: made in house; host or cells: SF9 insect cells / baculovirus
T4 sequence (P04150 1-777): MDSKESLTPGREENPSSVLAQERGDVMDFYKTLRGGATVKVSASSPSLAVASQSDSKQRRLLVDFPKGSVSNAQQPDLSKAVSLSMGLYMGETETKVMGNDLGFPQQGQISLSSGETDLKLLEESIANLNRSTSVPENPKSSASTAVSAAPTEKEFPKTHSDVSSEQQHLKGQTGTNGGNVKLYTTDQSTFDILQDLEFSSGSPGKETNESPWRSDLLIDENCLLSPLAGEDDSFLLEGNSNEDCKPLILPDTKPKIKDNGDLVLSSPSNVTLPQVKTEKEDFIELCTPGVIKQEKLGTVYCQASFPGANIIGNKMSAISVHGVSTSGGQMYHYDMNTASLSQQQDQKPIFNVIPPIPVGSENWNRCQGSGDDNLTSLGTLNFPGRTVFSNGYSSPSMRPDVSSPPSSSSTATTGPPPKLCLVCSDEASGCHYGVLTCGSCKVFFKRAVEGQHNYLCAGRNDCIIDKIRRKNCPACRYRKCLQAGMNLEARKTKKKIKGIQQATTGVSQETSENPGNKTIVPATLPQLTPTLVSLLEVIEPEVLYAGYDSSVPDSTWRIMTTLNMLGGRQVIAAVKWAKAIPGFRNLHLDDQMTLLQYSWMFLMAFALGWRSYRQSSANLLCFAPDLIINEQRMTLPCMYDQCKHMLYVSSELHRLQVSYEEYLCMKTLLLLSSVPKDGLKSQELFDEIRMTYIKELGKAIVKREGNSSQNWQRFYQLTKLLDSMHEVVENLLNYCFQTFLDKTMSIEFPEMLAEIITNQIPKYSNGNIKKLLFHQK
Description: Cette affinité a été étudiée sur les récepteurs hormonaux humains recombinant de la progestérone (hPR), androgène (hAN), glucocorticoide (hGR) et estrogène (hER). Ces récepteurs sont obtenus par surexpression dans un système cellules d'insectes-bacullovirus SF9 selon les méthodes décrites notamment dans la demande de brevet Européenne 0 629 635. Les affinité relatives de liaison (ARL) sont les suivantes : […]

[5] = In vivo studies of the hormonal activity profile

T1 sequence (P10275 whole entry): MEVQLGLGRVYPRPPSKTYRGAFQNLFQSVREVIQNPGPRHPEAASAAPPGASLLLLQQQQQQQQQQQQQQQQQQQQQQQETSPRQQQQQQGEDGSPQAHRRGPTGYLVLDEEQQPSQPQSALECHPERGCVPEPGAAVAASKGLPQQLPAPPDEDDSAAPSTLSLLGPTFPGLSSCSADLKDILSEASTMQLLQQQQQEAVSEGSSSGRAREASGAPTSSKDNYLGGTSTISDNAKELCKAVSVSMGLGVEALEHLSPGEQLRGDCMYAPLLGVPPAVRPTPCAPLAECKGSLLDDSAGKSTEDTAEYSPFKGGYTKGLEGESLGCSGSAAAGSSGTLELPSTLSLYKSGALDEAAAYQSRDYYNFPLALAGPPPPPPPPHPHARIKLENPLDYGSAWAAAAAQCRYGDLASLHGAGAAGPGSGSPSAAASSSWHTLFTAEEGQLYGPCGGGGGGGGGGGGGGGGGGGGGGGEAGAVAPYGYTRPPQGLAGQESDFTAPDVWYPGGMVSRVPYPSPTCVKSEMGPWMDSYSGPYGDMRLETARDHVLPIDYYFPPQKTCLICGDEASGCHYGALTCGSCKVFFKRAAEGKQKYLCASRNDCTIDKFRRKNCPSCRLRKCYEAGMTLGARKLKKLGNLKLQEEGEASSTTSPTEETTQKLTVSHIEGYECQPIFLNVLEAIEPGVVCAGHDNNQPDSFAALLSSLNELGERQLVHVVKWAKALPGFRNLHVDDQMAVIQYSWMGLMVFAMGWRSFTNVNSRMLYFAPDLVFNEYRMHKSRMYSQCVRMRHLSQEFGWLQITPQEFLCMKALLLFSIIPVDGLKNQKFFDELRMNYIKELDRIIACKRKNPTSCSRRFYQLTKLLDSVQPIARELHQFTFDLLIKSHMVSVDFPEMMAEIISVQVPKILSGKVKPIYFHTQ

Molecule | ARL hAN ([1]; relative binding affinity) | ARL hPR [2] | ARL hER [3] | ARL hGR [4] | affinité vis-à-vis du récepteur androgène ([1]; in words) | activité androgène [5] | activité antiandrogène [5] | activité antiglucocorticoïde [5] | activité antiminéralocorticoïde [5] | activité estrogène [5] | activité glucocorticoïde [5] | activité minéralocorticoïde [5] | activité progestomimétique [5]
medroxypropgestérone [MPA] | 36 | 298 | < 0,02 | 58 | – | – | – | – | – | – | – | – | –
C[C@H](O)C(=O)[C@@]1(C)CC[C@H]2[C@@H]3CCC4=CC(=O)CCC4=C3CC[C@@]21C [Trimegestone, 17alpha-méthyl-17béta-(2-hydroxy-1-oxo-propyl)-estra-4,9-dièn-3-one (21S)] | – | – | – | – | très faible affinité | dénué | présente | dénué | présente | dénué | dénué | dénué | puissant progestomimétique
